From paper PMC9394284, “Discovery of Novel Dual Adenosine A2A and A1 Receptor Antagonists with 1H-Pyrazolo[3,4-d]pyrimidin-6-amine Core Scaffold as Anti-Parkinson’s Disease Agents” (Pharmaceuticals, 2022) come the findings set out here.

“Also recorded” adds a separate entry of the source.

The test system of one data set is Sprague Dawley rats. Briefly: maximum tolerated dose, single oral administration, rat. The settings on record: in vivo, po. As to the method: (§1) Rat and dog MTD studies were performed at Frontage Laboratories Inc following testing facility’s SOPs. All procedures described were reviewed and approved by the Institutional Animal Care and Use Committee (IACUC) at Frontage Laboratories Inc.
(§2) For rat MTD study, male and female Sprague Dawley rats (Rattus norvegicus) of 8.1~9.6 weeks of age were purchased from Charles River Laboratories, USA and maintained at standard food and water ad libitum in temperature-controlled room with 12 h on-off light cycle before the experiment. Animals were acclimated to the testing facility for at least 6 to 16 days prior to initiation of dosing. Animals received a single dose of 11o in 0.5% methyl cellulose via oral gavage starting from 150 mg/kg dose level (this initial dose level was selected based on available data and the estimated toxicity using EPA’s toxicity estimation software tool (TEST) version 4.2.1) in 10 mL/kg dose volume. Subsequent doses occurred 3 or 4 days following the previous dose and were increased based on findings from the previous dosing(s). The procedure continued until four dosing events occurred. Animals were observed once in the morning and once in the afternoon throughout the study for clinical observations. Body weights were measured on the day prior to dose administration. […]

Experiment in data set [1]: as above
The note with it: both sexes, in vivo, single oral administration, male and female Sprague Dawley rats. As to the method: as §1, §2

The next data set concerns the target T1, A3 receptors (Homo sapiens, UniProt P0DMS8).
T1 construct: purchased PerkinElmer ES-012-M
T1 sequence (P0DMS8 1-318): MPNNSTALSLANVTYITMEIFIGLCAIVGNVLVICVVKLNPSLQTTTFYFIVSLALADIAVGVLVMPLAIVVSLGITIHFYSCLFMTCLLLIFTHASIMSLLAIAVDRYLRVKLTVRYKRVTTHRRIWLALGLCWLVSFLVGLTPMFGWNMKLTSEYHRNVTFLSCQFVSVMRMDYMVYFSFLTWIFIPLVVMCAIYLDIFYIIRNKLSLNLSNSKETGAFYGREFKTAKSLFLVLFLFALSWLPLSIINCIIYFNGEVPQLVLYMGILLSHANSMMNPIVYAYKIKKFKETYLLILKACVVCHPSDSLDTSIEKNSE
Nature of the data set: radioligand binding to human A3 receptors, CHO-K1 membranes, [125I]AB-MECA. As to the method: The radioligand-binding assays for adenosine receptors were performed at Eurofins Discovery Services (Panlabs, Taiwan). Briefly, stock solutions of the compounds were prepared in DMSO and further diluted with the incubation buffer to the desired concentration. Final DMSO concentrations in the assay were 1.0%. For adenosine A1 screening, a 10 μg aliquots of membrane preparations from human recombinant CHO-K1 cells stably expressing A1 receptors (CHO-K1-hA1AR clone3, EPDST, R200510) were incubated with 1 nM [^3H]DPCPX in incubation buffer (20 mM HEPES, pH 7.4, 10 mM MgCl2, 100 mM NaCl 1.40 nM) for 90 min at 25 °C. Nonspecific binding was estimated in the presence of 100 μM R(-)-PIA. Membranes were filtered and washed 3 times and the filters were counted to determine specifically bound [^3H]DPCPX. Chemical compounds were screened at 10 μM. For A2A screening, membrane preparations from human recombinant HEK-293 cells stably expressing A2A receptors (PerkinElmer, RBHA2AM) were incubated with 0.05 μM [^3H]CGS-21680 in incubation buffer (50 mM Tris-HCl, pH 7.4, 10 mM MgCl2, 1 mM EDTA, 2 U/mL Adenosine Deaminase) for 90 min at 25 °C. Nonspecific binding was estimated in the presence of 50.0 μM NECA. Membranes were filtered and washed 3 times and the filters were counted to determine [^3H]CGS-21680 specifically bound. […] Membranes were filtered and washed 3 times and the filters were counted to determine [^3H]MRS1754 specifically bound. […]
IC50 values were determined by a nonlinear, least-squares regression analysis using MathIQ^TM (ID Business Solutions Ltd., Guildford, UK). Where inhibition constants (Ki) were presented, the Ki values were calculated using Cheng and Prusoff equation [18] using the observed IC50 of the compound, the concentration of radioligand employed in the assay, and the historical values for the KD of the ligand (obtained experimentally at Eurofins Panlabs, Inc.). The Hill coefficient (nH), which defines the slope of the competitive binding curve, was calculated using MathIQ^TM.

For the next data set, the system named is TA98 and TA100. Briefly: AMES bacterial reverse-mutation test. It counts as cell-based. The settings on record: up to 1867 μg/plate; TA98 and TA100, with and without S9. As to the method:
The mutagenic potential of 11o was also tested by assessing its ability to reverse mutations in a bacterial mutagenesis study.
AMES bacterial reverse-mutation test was performed at Frontage laboratories inc. (Frontage laboratories, Concord, OH, USA) according to testing facility’s standard operating procedures (SOPs) following OECD guideline 471, “Bacterial Reverse Mutation Test”, and ICH S2(R1), “Guidance on Genotoxicity Testing and Data Interpretation for Pharmaceuticals Intended for Human Use”[19]. Briefly, test system was exposed to test article via plate-incorporation methodology originally described by Ames et al. and updated by Maron and Ames. […] For mutagenicity assay, TA98 and TA100 (tester strains source: Molecular Toxicology Inc. (Boone, NC, USA). TA98 lot number 5464D, part number 71–098L; TA100 lot number 5439D, part number 71–100L) was exposed to vehicle alone and at least 8 concentrations of 11o, with duplicate plates/condition, in both the presence and absence of S9 using the plate incorporation method. […] Following incubation, plates were examined for the condition of the bacterial background lawn and precipitate and recorded. Colonies were enumerated either by visually or by an automatic colony counter (Scan 1200 Automated colony counter and scan software).

[2] abbreviates: average of duplicate experiments.

As a reminder, the MTD is the highest dose tested that stayed within the study's limit of toxicity. The low end stands for poorer tolerability, the high end for better tolerability. As usually defined, the IC50 is the midpoint of a concentration-inhibition curve. Low readings indicate higher potency, high ones lower potency. As a reminder, the Ki is the equilibrium dissociation constant of an inhibitor or competing ligand from its target. Higher therefore signals a looser hold on the target. `Cc1cc(Cn2ncc3c(-c4cccc(C#N)c4F)nc(N)nc32)ccc1N` [11o, 3-(6-Amino-1-(4-amino-3-methylbenzyl)-1H-pyrazolo[3,4-d]pyrimidin-4-yl)-2-fluorobenzonitrile]: in the data set with Sprague Dawley rats, the “body weight loss or mortality in rats” value is “no body weight loss or mortality observed”. The same compound returned an MTD in data set [1] greater than 1000 mg/kg. In addition, the “nH (Hill coefficient), A3” value at A3 receptors came out at 0.44. For the same compound, at A3 receptors (setting [2]), the IC50 was determined as 1130 nM and the Ki was 1050 nM. Besides, the AMES mutagenicity result with TA98 and TA100 is given as “did not cause any positive mutagenic response; also recorded: no mutagenicity up to 1867 μg/plate”.
